Measured values from US20180200257A1, “METHODS FOR THE TREATMENT OF INFLAMMATORY DISORDERS” (Galapagos NV, priority 2015, published 2018).

What was measured:
[1] = test system: Subjects With Active Crohn's Disease With Evidence of Mucosal Ulceration; experiment: Study 3 - Alanine Aminotransferase (ALT) levels; type: in vivo, human
Text: Double-Blind, Randomized, Placebo-Controlled, Multi-Centre Study to Investigate the Efficacy and Safety of Compound 1 in Subjects With Active Crohn's Disease With Evidence of Mucosal Ulceration. This is a double-blind, randomized, placebo-controlled, multi-centre Phase 2 study to investigate the efficacy and safety of Compound 1 administered once daily for the treatment of active CD with evidence of mucosal ulceration. The pharmacokinetics (including a PK substudy) and pharmacodynamics of Compound 1 and metabolite in CD will also be characterised. A total of 180 eligible subjects will be randomized to receive Compound 1 or placebo in addition to their stable background treatment (eg, corticosteroids, aminosalicylates, or CD-related antibiotics). The study will consist of 2 parts, with total treatment duration of 20 weeks. Randomization in Part 1 will be stratified according the subject's previous anti-TNF exposure/response, CRP level at Screening, and oral corticosteroid use at visit Day −1. After the first 10 weeks of treatment in Part 1, patients will be re-randomized for Part 2 as shown in the diagram below and will be stratified according to the subject's clinical response, previous anti-TNF exposure/response, and oral corticosteroid use at visit Day -1. [table] ALT levels determination is available at Quest Diagnostics, Clinical Trials, Quest House, 125-135 Staines Road, Hounslow, Middlesex, TW3 3JB, United Kingdom under Catalogue n#84460. ALT catalyzes the exchange of the amino group of alanine with the oxogroup of 2-ketoglutarate to form pyruvate and glutamate. In the presence of lactic dehydrogenase, pyruvate reacts with NADH to form NAD+, measured spectrophotometrically. Guidelines for the ALT value have been issued by the association for Clinical Biochemistry and Laboratory Medicine, 130-132 Tooley Street LONDON SE1 2TU, united Kingdom, wherein the ALT value should be below 34 U/l in Female and below 52 U/L in male.

[2] = test system: Subjects With Active Crohn's Disease With Evidence of Mucosal Ulceration; experiment: Study 3 - Inflammatory Bowel Disease Questionnaire (IBDQ) scores; type: in vivo, human; conditions: 200 mg, LOCF
Text: Double-Blind, Randomized, Placebo-Controlled, Multi-Centre Study to Investigate the Efficacy and Safety of Compound 1 in Subjects With Active Crohn's Disease With Evidence of Mucosal Ulceration. This is a double-blind, randomized, placebo-controlled, multi-centre Phase 2 study to investigate the efficacy and safety of Compound 1 administered once daily for the treatment of active CD with evidence of mucosal ulceration. The pharmacokinetics (including a PK substudy) and pharmacodynamics of Compound 1 and metabolite in CD will also be characterised. A total of 180 eligible subjects will be randomized to receive Compound 1 or placebo in addition to their stable background treatment (eg, corticosteroids, aminosalicylates, or CD-related antibiotics). The study will consist of 2 parts, with total treatment duration of 20 weeks. Randomization in Part 1 will be stratified according the subject's previous anti-TNF exposure/response, CRP level at Screening, and oral corticosteroid use at visit Day -1. After the first 10 weeks of treatment in Part 1, patients will be re-randomized for Part 2 as shown in the diagram below and will be stratified according to the subject's clinical response, previous anti-TNF exposure/response, and oral corticosteroid use at visit Day -1. [table] The Inflammatory Bowel Disease Questionnaire (IBDQ) is a questionnaire for health-related quality of life assessment in patients with inflammatory bowel diseases: ulcerative colitis and Crohn's disease. It consists of 32 questions divided into four groups: bowel symptoms (10 items), systemic symptoms (5 items), emotional function (12 items) and social function (5 items). Every question has graded responses from 1 to 7, and thus the total score is ranging from 32 to 224 with higher scores representing better quality of life. The IBDQ is a validated assessment tool that reflects important changes in the quality of life of patients with IBD (adapted from […] et al, Inflamm Bowel Dis, Volume 10, Number 3, May 2004)

[3] = 10 weeks results, 200 mg q.d., week 2
[4] = 10 weeks results, 200 mg q.d., week 4
[5] = 10 weeks results, 200 mg q.d., week 6
[6] = 10 weeks results, 200 mg q.d., week 10
[7] = 20 weeks results, 200 mg q.d. week 0 to 10, to 100 mg q.d. week 10 to 20, week 2
[8] = 20 weeks results, 200 mg q.d. week 0 to 10, to 100 mg q.d. week 10 to 20, week 4
[9] = 20 weeks results, 200 mg q.d. week 0 to 10, to 100 mg q.d. week 10 to 20, week 6
[10] = 20 weeks results, 200 mg q.d. week 0 to 10, to 100 mg q.d. week 10 to 20, week 10
[11] = 20 weeks results, 200 mg q.d. week 0 to 10, to 100 mg q.d. week 10 to 20, week 12
[12] = 20 weeks results, 200 mg q.d. week 0 to 10, to 100 mg q.d. week 10 to 20, week 16
[13] = 20 weeks results, 200 mg q.d. week 0 to 10, to 100 mg q.d. week 10 to 20, week 20
[14] = 20 weeks results, 200 mg q.d. week 0 to 10, to placebo week 10 to 20, week 2
[15] = 20 weeks results, 200 mg q.d. week 0 to 10, to placebo week 10 to 20, week 4
[16] = 20 weeks results, 200 mg q.d. week 0 to 10, to placebo week 10 to 20, week 6
[17] = 20 weeks results, 200 mg q.d. week 0 to 10, to placebo week 10 to 20, week 10
[18] = 20 weeks results, 200 mg q.d. week 0 to 10, to placebo week 10 to 20, week 12
[19] = 20 weeks results, 200 mg q.d. week 0 to 10, to placebo week 10 to 20, week 16
[20] = 20 weeks results, 200 mg q.d. week 0 to 10, to placebo week 10 to 20, week 20
[21] = 20 weeks results, continued 200 mg q.d., week 2
[22] = 20 weeks results, continued 200 mg q.d., week 4
[23] = 20 weeks results, continued 200 mg q.d., week 6
[24] = 20 weeks results, continued 200 mg q.d., week 10
[25] = 20 weeks results, continued 200 mg q.d., week 12
[26] = 20 weeks results, continued 200 mg q.d., week 16
[27] = 20 weeks results, continued 200 mg q.d., week 20
[28] = 20 weeks results, placebo week 0 to 10, to 100 mg q.d. week 10 to 20, week 12
[29] = 20 weeks results, placebo week 0 to 10, to 100 mg q.d. week 10 to 20, week 16
[30] = 20 weeks results, placebo week 0 to 10, to 100 mg q.d. week 10 to 20, week 20

SMILES: O=C(Nc1nc2cccc(-c3ccc(CN4CCS(=O)(=O)CC4)cc3)n2n1)C1CC1 [Compound 1, cyclopropanecarboxylic acid {5-[4-(1,1-dioxo-thiomorpholin-4-ylmethyl)-phenyl]-[1,2,4]triazolo[1,5-a]pyridin-2-yl}-amide]
- Study 3 - ALT Mean CFB [1, 3]: 0.0 IU/L
- Study 3 - ALT Mean percentage CFB [1, 3]: 8.3%
- Study 3 - ALT Mean CFB [1, 4]: −0.6 IU/L
- Study 3 - ALT Mean percentage CFB [1, 4]: 5.8%
- Study 3 - ALT Mean CFB [1, 5]: −1.2 IU/L
- Study 3 - ALT Mean percentage CFB [1, 5]: 3.1%
- Study 3 - ALT Mean CFB [1, 6]: 1.6 IU/L
- Study 3 - ALT Mean percentage CFB [1, 6]: 24.4%
- Study 3 - ALT Mean CFB [1, 7]: −2.03 IU/L
- Study 3 - ALT Mean percentage CFB [1, 7]: −4.84%
- Study 3 - ALT Mean CFB [1, 8]: −1.93 IU/L
- Study 3 - ALT Mean percentage CFB [1, 8]: −3.24%
- Study 3 - ALT Mean CFB [1, 9]: −1.60 IU/L
- Study 3 - ALT Mean percentage CFB [1, 9]: −0.60%
- Study 3 - ALT Mean CFB [1, 10]: −0.50 IU/L
- Study 3 - ALT Mean percentage CFB [1, 10]: 5.92%
- Study 3 - ALT Mean CFB [1, 11]: 0.03 IU/L
- Study 3 - ALT Mean percentage CFB [1, 11]: 3.56%
- Study 3 - ALT Mean CFB [1, 12]: 0.21 IU/L
- Study 3 - ALT Mean percentage CFB [1, 12]: 8.83%
- Study 3 - ALT Mean CFB [1, 13]: 6.15 IU/L
- Study 3 - ALT Mean percentage CFB [1, 13]: 38.62%
- Study 3 - ALT Mean CFB [1, 14]: −2.30 IU/L
- Study 3 - ALT Mean percentage CFB [1, 14]: 3.63%
- Study 3 - ALT Mean CFB [1, 15]: −2.04 IU/L
- Study 3 - ALT Mean percentage CFB [1, 15]: 8.87%
- Study 3 - ALT Mean CFB [1, 16]: −3.78 IU/L
- Study 3 - ALT Mean percentage CFB [1, 16]: 1.03%
- Study 3 - ALT Mean CFB [1, 17]: −1.48 IU/L
- Study 3 - ALT Mean percentage CFB [1, 17]: 12.60%
- Study 3 - ALT Mean CFB [1, 18]: 1.48 IU/L
- Study 3 - ALT Mean percentage CFB [1, 18]: 16.15%
- Study 3 - ALT Mean CFB [1, 19]: 1.90 IU/L
- Study 3 - ALT Mean percentage CFB [1, 19]: 23.87%
- Study 3 - ALT Mean CFB [1, 20]: −0.38 IU/L
- Study 3 - ALT Mean percentage CFB [1, 20]: 17.82%
- Study 3 - ALT Mean CFB [1, 21]: 1.46 IU/L
- Study 3 - ALT Mean percentage CFB [1, 21]: 14.82%
- Study 3 - ALT Mean CFB [1, 22]: 0.36 IU/L
- Study 3 - ALT Mean percentage CFB [1, 22]: 8.36%
- Study 3 - ALT Mean CFB [1, 23]: −0.17 IU/L
- Study 3 - ALT Mean percentage CFB [1, 23]: 5.47%
- Study 3 - ALT Mean CFB [1, 24]: 3.75 IU/L
- Study 3 - ALT Mean percentage CFB [1, 24]: 38.09%
- Study 3 - ALT Mean CFB [1, 25]: 3.00 IU/L
- Study 3 - ALT Mean percentage CFB [1, 25]: 26.61%
- Study 3 - ALT Mean CFB [1, 26]: 4.04 IU/L
- Study 3 - ALT Mean percentage CFB [1, 26]: 33.15%
- Study 3 - ALT Mean CFB [1, 27]: 2.53 IU/L
- Study 3 - ALT Mean percentage CFB [1, 27]: 22.15%
- Study 3 - ALT Mean CFB [1, 28]: −0.55 IU/L
- Study 3 - ALT Mean percentage CFB [1, 28]: 10.24%
- Study 3 - ALT Mean CFB [1, 29]: −1.95 IU/L
- Study 3 - ALT Mean percentage CFB [1, 29]: 2.75%
- Study 3 - ALT Mean CFB [1, 30]: −2.05 IU/L
- Study 3 - ALT Mean percentage CFB [1, 30]: 4.96%
- IBDQ Bowel symptoms ([2]; Baseline): 41.07
- IBDQ Emotional status ([2]; Baseline): 45.91
- IBDQ Social functioning ([2]; Baseline): 19.26
- IBDQ Systemic symptoms ([2]; Baseline): 16.32
- IBDQ mean CFB ([2]; Baseline): 123.00
- IBDQ Bowel symptoms ([2]; week 10): 9.96
- IBDQ Emotional status ([2]; week 10): 12.07
- IBDQ Social functioning ([2]; week 10): 6.19
- IBDQ Systemic symptoms ([2]; week 10): 5.73
- IBDQ mean CFB ([2]; week 10): 33.82
